The text below walks through data of PMC11799252, “The differentiation state of small intestinal organoid models influences prediction of drug-induced toxicity” (Frontiers in Cell and Developmental Biology, 2025).

Where two headings read alike, the source gives them in different places.

The subject of series [1] is differentiated duodenum organoids. The series can be described thus: Cell viability (Cell Titer Glo 3D, ATP) in differentiated organoid model. Conditions: for IC50: Homo sapiens, read-out: IC50 (μM) Diff. As for the experimental part:
(§1) Organoids were grown for 7–10 days then dissociated using TrypLE™ Express Enzyme, as described above. Single cells were resuspended in BME at a density of 5–6 × 10^5 cells/mL on ice and plated as 5 μL/well domes in clear-bottom 96-well plates (Corning). The domes were cured for 10–15 min at 37°C and overlaid with 100 μL of growth media replaced every 2–3 days.
(§2) Compounds were administered after 5–6 days in growth medium for proliferative organoids or after an additional 4 days in differentiation medium for differentiated organoids. Organoid media was replaced with 90 μL fresh media immediately prior to dosing. Compounds were diluted in growth or differentiation medium and administered as a 5-fold dilution series at 5-8 concentrations with corresponding 0.5% DMSO vehicle control (1% DMSO for aspirin), at 10 μL/well in triplicate. […] After 3 days of treatment, cultures were imaged by brightfield microscopy (THUNDER DMi8 inverted light microscope with a 2.5× objective and a DFC9000 GTC camera (Leica)). Wells were precluded from analysis on visual quality control (i.e., organoid loss due to BME degradation/dislodging or insufficient seeding density) congruent with cytotoxicity analysis. An equal volume of Cell Titer Glo 3D Reagent (Promega) was added to each well as described by the manufacturer’s instructions. Luminescence was measured on EnSight and EnVision (Perkin Elmer) plate readers and normalized to on-plate vehicle controls (0.5%–1% DMSO) in corresponding growth or differentiation medium. Experiments were conducted in technical triplicates and repeated in organoids from 3 different donors (donor demographics noted in Supplementary Table S1). Normalized viability was averaged at each concentration for each donor, and mean of donors was fit to a 4-Parameter Logistic (4PL) curve using Prism (GraphPad) to estimate the half-maximal inhibitory concentration (IC50) for each compound.
(§3) To compare toxicity responses of proliferative and differentiated organoids, proliferative organoids were grown 5–6 days in OGM prior to dosing, while differentiated organoids were transitioned to ODM for an additional 4 days prior to dosing (Figure 2A). Both proliferative and differentiated organoids were incubated with compounds or a 0.5%–1% DMSO vehicle control (as indicated) for 3 days prior to measuring ATP levels as a readout for cell viability. […] Compound-treated organoid ATP readouts were normalized to vehicle controls and a half-maximal inhibitory concentration (IC50) was calculated from dose-response curves of organoid viability for five compounds across 3 donor organoid lines.

Series [2] concerns proliferative duodenum organoids. Kind of series: Cell viability (Cell Titer Glo 3D, ATP) in proliferative organoid model. Conditions: for IC50: Homo sapiens, 72 h, read-out: IC50 (μM) Prolif. As for the experimental part:
as §1, §2, §3

For series [3] the following is noted: clinical, cited from earlier work.
The conditions of series [4]: clinical plasma, cited from earlier work.
Series [5] can be described thus: Cell viability (Cell Titer Glo 3D, ATP) in differentiated organoid model. Conditions: human, differentiated duodenum organoids. As for the experimental part:
as §1, §2, §3

The mark [6] stands for this setting: patients, ref Peters et al., 2019.
Where [7] appears, read: ref Peters et al., 2019, 2020, Belair et al.

Take `CN(C)C/C=C/C(=O)Nc1cc2c(Nc3ccc(F)c(Cl)c3)ncnc2cc1O[C@H]1CCOC1` [afatinib]: the values for the IC50 in series [1] and in series [2] were 4.16 µM and 0.036 µM, respectively. Moreover, the “fold increase in IC50, differentiated vs proliferative organoids” value in series [1] (IC50 differentiated / IC50 proliferative) is given as “over 100 fold”. Besides, the “Incidence of Diarrhea (%)” value in series [3] (setting [6]) is reported as 96%. The highest concentration (Cmax) in series [4] (setting [7]) was 0.078 µM.

Consider `CNC(=O)c1cc(Oc2ccc(NC(=O)Nc3ccc(Cl)c(C(F)(F)F)c3)cc2)ccn1` [sorafenib], for which the results for the IC50 in series [1] and in series [2] were 8.42 µM and 10 µM, respectively. Moreover, the “Incidence of Diarrhea (%)” value in series [3] (setting [6]) is 43%. Also, in series [4] (setting [7]), the Cmax is 6.2 µM.

`COc1cc2c(c(OC)c1OC)-c1ccc(OC)c(=O)cc1[C@@H](NC(C)=O)CC2` [colchicine]: in series [4] (setting [7]), the Cmax is 0.017 µM.

For `CC(=O)Oc1ccccc1C(=O)O` [aspirin, Acetylsalicylic acid], the cytotoxicity at 3 days, 200 µM in series [5] is around 25%. Further, the figures for the IC50 in series [1] and in series [2] were 626 µM and 1770 µM, respectively. The decreases in viability entry in series [1] (below 100 µM, differentiated organoids, 3 days) was “minimal”; in series [2] (below 100 µM, proliferative organoids, 3 days) it was “minimal”. In series [1] (human, 3 days), the “IC50/Cmax Diff.” value was found to be 23.3. Further, the decline in viability entry in series [2] (200 µM, proliferative organoids, 3 days) is “no decline”. Besides, in series [2] (human, 3 days), the “IC50/Cmax Prolif.” value is 65.9. The “Incidence of Diarrhea (%)” value in series [3] (oral dosing, ref Rampal et al., 2001) is recorded as “less than 2%”; in series [3] (oral dosing, ref Rampal et al., 2001, listed as Aspirin), 1.8%. Further, the Cmax in series [4] (high-dose oral administration, ref Nagelschmitz et al. (2014)) is 26.9 µM.
